Reference: US20220306640A1, “HYDANTOIN DERIVATIVE” (ONO PHARMACEUTICAL CO., LTD., priority 2019, published 2022)

Target: T1, DDR1 phosphorylation in T-47D (ATCC, HTB-133) cells (Homo sapiens, UniProt Q08345)
T1 construct: host or cells: T-47D
Experiment: Measurement of DDR1 phosphorylation suppression rate by using T-47D cells (p-DDR1 ELISA)
Format: cell-based
Details: collagen Type I 10 μg/ml, p-DDR1 (panTyr) ELISA
Outline: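 T-47D cells were pre-treated with compound 24 h in RPMI/0.1% BSA (0.1% DMSO, 6-point 10-fold series), then stimulated with rat tail collagen I (10 μg/ml) for 24 h at 37 °C. Lysate p-DDR1 (panTyr) was read by ELISA; IC50 derived from % inhibition versus collagen and no-collagen controls.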

T1 sequence (Q08345 19-913): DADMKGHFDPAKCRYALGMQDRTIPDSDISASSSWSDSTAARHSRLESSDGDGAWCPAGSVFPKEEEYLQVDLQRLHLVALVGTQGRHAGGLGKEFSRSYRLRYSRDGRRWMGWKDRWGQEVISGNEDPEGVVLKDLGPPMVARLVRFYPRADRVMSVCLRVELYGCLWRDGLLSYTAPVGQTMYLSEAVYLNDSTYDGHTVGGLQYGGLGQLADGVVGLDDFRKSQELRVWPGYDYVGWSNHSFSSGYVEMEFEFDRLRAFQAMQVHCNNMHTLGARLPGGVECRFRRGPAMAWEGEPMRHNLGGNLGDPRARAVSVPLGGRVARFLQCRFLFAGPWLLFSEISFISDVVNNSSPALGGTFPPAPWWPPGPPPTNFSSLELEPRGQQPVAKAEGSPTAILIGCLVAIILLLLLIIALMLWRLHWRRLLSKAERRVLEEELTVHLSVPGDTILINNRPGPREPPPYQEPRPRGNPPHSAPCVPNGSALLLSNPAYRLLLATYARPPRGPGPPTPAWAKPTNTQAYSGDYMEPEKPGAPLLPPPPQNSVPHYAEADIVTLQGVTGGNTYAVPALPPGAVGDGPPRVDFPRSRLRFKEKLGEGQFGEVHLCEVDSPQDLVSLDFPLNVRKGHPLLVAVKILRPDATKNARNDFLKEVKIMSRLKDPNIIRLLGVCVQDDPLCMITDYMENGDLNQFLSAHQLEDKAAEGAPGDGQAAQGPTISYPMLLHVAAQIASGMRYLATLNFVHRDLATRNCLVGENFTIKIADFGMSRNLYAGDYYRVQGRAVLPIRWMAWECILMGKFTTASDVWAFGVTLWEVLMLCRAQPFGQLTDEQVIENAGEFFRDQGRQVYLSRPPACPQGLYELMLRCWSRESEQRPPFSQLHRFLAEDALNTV

IC50: 1 nM
Structure (SMILES): Cc1cc(Oc2ccnc(N)n2)ccc1N1C(=O)CN(c2ccc(F)c(OC(F)(F)F)c2)C1=O [Example 3(110), 3-{4-[(2-amino-4-pyrimidinyl)oxy]-2-methylphenyl}-1-[4-fluoro-3-(trifluoromethoxy)phenyl]-2,4-imidazolidinedione]
